Data from paper PMC7473772 (eLife, 2020).
Values joined by “and” are separate entries in the source; they are usually repeats but may differ in a detail not shown here. Equal entries are not always repeated. Structures can show the parent of a compound that is named as a salt. Where two headings read alike, the source gives them in different places.

Experiments:
[1] = molecular target: TbAQP2/HAPT1 (Trypanosoma brucei brucei, UniProt Q6ZXT3); assay: cell-based; type: cell-based
[2] = system: s427WT bloodstream forms; type: cell-based, Trypanosoma brucei brucei
[3] = Gibbs free energy of binding to HAPT
[4] = NI/NE with the concentration tested, read-out: HAPT Ki, AVG

Chain of TbAQP2/HAPT1 (Q6ZXT3 whole entry): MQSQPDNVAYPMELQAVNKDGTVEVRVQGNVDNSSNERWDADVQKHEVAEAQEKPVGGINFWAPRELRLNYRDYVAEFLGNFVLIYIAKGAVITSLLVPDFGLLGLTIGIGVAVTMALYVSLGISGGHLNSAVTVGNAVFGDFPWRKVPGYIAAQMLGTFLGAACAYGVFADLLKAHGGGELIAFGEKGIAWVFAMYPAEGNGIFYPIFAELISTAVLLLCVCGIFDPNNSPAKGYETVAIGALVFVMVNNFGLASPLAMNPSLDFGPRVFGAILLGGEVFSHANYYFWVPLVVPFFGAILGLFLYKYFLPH

SMILES	ΔG0 [1] [kcal/mol]	δ(ΔG^0) PMD [1] [kcal/mol]	Ki ([1]; Ki)	further results
CON1CCN=C1Nc1ccc(CCc2ccc(NC3=NCCN3OC)cc2)cc1 [CRMI8]	-5.83	4.33	52.8 ± 12.7 µM	
N=C(N)c1ccc(OCCCCCCOc2ccc(C(=N)N)cc2)cc1 [Hexamidine]	-9.87	0.311	0.058 ± 0.011 µM	
N=C(N)c1ccc(OCCCCCOc2ccc(C(=N)N)nc2)cn1 [RT-53]		>5.26	> 250 µM	HAPT Ki, AVG [1]: NI, 250; Ki [1]: completely inactive; δ(ΔG0) [1]: >5.26 kcal/mol
COc1ccc(-c2ccc(-c3ccc(C(=N)N)cc3)o2)cc1 [DB607, 4-(5-(4-methoxyphenyl)furan-2-yl) benzimidamide hydrochloride]	-6.48	3.7	18.1 ± 1.9 µM	
Cl.Cl.N=C(N)c1ccc(OCCOc2ccc(C(=N)N)cc2)cc1.O.O [Ethamidine, 4,4'-(ethane-1,2-diylbis(oxy))dibenzimidamide dihydrochloride dihydrate]		>4.71	> 100 µM	δ(ΔG0) [1]: >4.71 kcal/mol
N=C(N)CCc1ccc(-c2ccc(-c3ccc(CCC(=N)N)cc3)o2)cc1 [DB1061, 3,3'-(furan-2,5-diylbis (4,1-phenylene)) dipropanimidamide dihydrochloride]	-6.12	4.04	32.3 ± 6 µM	
N=C(N)c1ccc(-c2ccc(-c3ccc(-c4ccc(C(=N)N)cc4)o3)o2)cc1 [DB914]	-9.73	0.43	0.073 ± 0.013 µM	
N=C(N)c1ccc(OCCCCCOc2ccc(C(=N)N)cc2)cc1 [Chainlength 5]				Ki ([1]; Ki value, Mean): 0.0364 µM
N=C(N)c1ccc(O)cc1 [4-hydroxybenzamidine]	-3.47	6.72	2900 µM	Ki ([1]; HAPT Ki, AVG): 2890 µM
N=C(N)c1ccc(-c2csc(-c3ccc(C(=N)N)cc3)n2)cc1 [ER1004, 4,4'-(thiazole-2,4-diyl)dibenzimidamide]	-5.69	4.49	68.7 ± 16 µM	
Cn1c(-c2ccc(-c3ccc(C(=N)N)cc3)o2)nc2ccccc21 [DB960, 4-(5-(1-methyl-1H-benzo[d]imidazol-2-yl)furan-2-yl) benzimidamide dihydrochloride]	-6.52	3.66	16.6 ± 3.5 µM	
N=C(N)c1ccc(/C=C/c2ccc(C(=N)N)cc2)cc1 [Stilbamidine]	-5.81	4.37	54.8 ± 3.2 µM	Ki ([1]; HAPT Ki, AVG): 54.8 µM
N=C(N)c1ccc(OCCCCCCCOc2ccc(C(=N)N)cc2)cc1 [Chainlength 7]				Ki ([1]; Ki value, Mean): 0.125 µM
N=C(N)CCc1ccc(-c2ccc(-c3ccc(CCC(=N)N)cc3)s2)cc1 [DB1063, 3,3'-(thiophene-2,5-diylbis(4,1-phenylene)) dipropanimidamide dihydrochloride]	-8.72	1.43	0.4 ± 0.1 µM	
N=C(N)c1ccc(OCCCCCCCCOc2ccc(C(=N)N)cc2)cc1 [Chainlength 8]				Ki ([1]; Ki value, Mean): 2.2 µM
N=C(N)c1ccc(OCCCOc2ccc(C(=N)N)cc2)cc1 [Chainlength 3]				Ki ([1]; Ki value, Mean): 7.2 µM
N=C(N)c1ccc(OCCCCCCCCOc2ccc(C(=N)N)cc2)cc1 [Octamidine]	-7.72	2.44	2.16 ± 0.48 µM	
N=C(N)c1ccc(-c2ccc(-c3ccc(C(=N)N)cn3)o2)cc1 [DB820]				ΔG0 [1, 3]: -5.95 kcal/mol; Ki [1, 4]: 43.4 µM; δ(ΔG0) ([1]; relative to pentamidine (0)): 4.23 kcal/mol
N=C(N)c1cccc(OCCCCCOc2cccc(C(=N)N)c2)c1 [Meta-pentamidine RT40]	-5.71			δ(ΔG0) [1]: 4.45 kcal/mol; Ki ([1]; HAPT Ki, AVG): 64.2 µM
N=C(N)c1ccc(S(=O)(=O)CCCCCS(=O)(=O)c2ccc(C(=N)N)cc2)cc1 [RT-49]		>4.95	> 150 µM	Ki [1]: no binding affinity; δ(ΔG0) [1]: >4.95 kcal/mol
c1cc(NC2=NCCN2)ccc1CCc1ccc(NC2=NCCN2)cc1 [FR39]	-5.98	4.21	41.7 ± 15.2 µM	
COc1cc(/C=C/C(=O)CC(=O)/C=C/c2ccc(O)c(OC)c2)ccc1O [curcumin]	-4.64			Ki [1]: failed to inhibit; δ(ΔG0) [1]: 5.54 kcal/mol; Ki ([1]; HAPT Ki, AVG): 398 µM

SMILES	ΔG0 [1] [kcal/mol]	δ(ΔG^0) PMD [1] [kcal/mol]	Ki ([1]; Ki)	further results
N=C(N)c1ccc(OCCCOc2ccc(C(=O)O)cc2)cc1 [RT-38]		>4.71	> 100 µM	HAPT Ki, AVG [1]: NI, 100
N=C(N)NCCCCCCCCCCN=C(N)N.O=S(=O)(O)O [Synthalin sulphate]				ΔG0 [1, 3]: -4.88 kcal/mol; Ki [1, 4]: 270 µM; δ(ΔG0) ([1]; relative to pentamidine (0)): 5.31 kcal/mol
N=C(N)c1ccc(OCCCCCCCOc2ccc(C(=N)N)cc2)cc1 [Heptamidine]	-9.42	0.741	0.123 ± 0.01 µM	
N=C(N)c1ccc(OCCOCCOc2ccc(C(=N)N)cc2)cc1 [DB1699]	-6.52	3.66	16.6 ± 2.1 µM	
N=C(N)c1ccc(OCCCCCCOc2ccc(C(=N)N)cc2)cc1 [Chainlength 6]				Ki ([1]; Ki value, Mean): 0.059 µM
O=c1ccc2[n+]([O-])c3ccc(O)cc3oc-2c1 [resazurin]	-5.19			δ(ΔG0) [1]: 4.97 kcal/mol; Ki ([1]; HAPT Ki, AVG): 155 µM
Cn1c([N+](=O)[O-])cnc1-c1nnc(N)s1 [megazol]				HAPT Ki, AVG [1]: NE, 250; Ki [1]: failed to inhibit
N=C(N)c1ccc(-c2cc3ccc(C(=N)N)cc3[nH]2)cc1 [DAPI]	-6.24			δ(ΔG0) [1]: 3.92 kcal/mol; Ki ([1]; read-out: HAPT Ki, AVG): 26.4 µM
N=C(N)c1ccc(-c2ccc(-c3ccc(C(=N)N)cn3)o2)nc1 [DB829]	-6	4.16	39.9 ± 8 µM	
N=C(N)c1ccc(OCCCCCOc2ccc(C(=N)N)cc2C(N)=O)c(C(N)=O)c1 [RT-46]		>4.71	> 100 µM	Ki [1]: no affinity at all
N=C(N)c1ccc(OCCCCOc2ccc(C(=N)N)cc2)cc1 [Chainlength 4]				Ki ([1]; Ki value, Mean): 3.91 µM
CC(C)[C@@H]1NC(=O)[C@H](C)OC(=O)[C@@H](C(C)C)NC(=O)[C@@H](C(C)C)OC(=O)[C@H](C(C)C)NC(=O)[C@H](C)OC(=O)[C@@H](C(C)C)NC(=O)[C@@H](C(C)C)OC(=O)[C@H](C(C)C)NC(=O)[C@H](C)OC(=O)[C@@H](C(C)C)NC(=O)[C@@H](C(C)C)OC1=O [valinomycin]				pentamidine uptake ([2]; valinomycin 0.3, AVG): 106.4 percentage of the uninhibited control; pentamidine uptake ([2]; valinomycin 0.3, single repeats): 108.9 percentage of the uninhibited control and 103.8 percentage of the uninhibited control; pentamidine uptake ([2]; valinomycin 1, AVG): 91.0 percentage of the uninhibited control; pentamidine uptake ([2]; valinomycin 1, single repeats): 97.7 percentage of the uninhibited control and 84.2 percentage of the uninhibited control; pentamidine uptake ([2]; valinomycin 10, AVG): 80.1 percentage of the uninhibited control; pentamidine uptake ([2]; valinomycin 10, single repeats): 86.7 percentage of the uninhibited control and 73.5 percentage of the uninhibited control
N=C(N)c1ccc(-c2ccc(-c3ccc(C(=N)N)nc3)o2)cn1 [DB994]	-5.16	5.02	167 ± 20 µM	
Cl.N=C(N)c1ccc(OCCCCOc2ccccc2)cc1.O [CHI/1/69/1, 4-(4-Phenoxybutoxy)benzimidamide hydrochloride hydrate]	-7.7	2.49	2.33 µM and 2.3 µM	
Cl.Cl.N=C(N)c1ccc(OCCCOc2ccc(C(=N)N)cc2)cc1.O.O [Propamidine, 4,4’-(propane-1,3-diylbis(oxy))dibenzimidamide dihydrochloride dihydrate]	-7.07	3.11	6.63 ± 1.4 µM	
O=C(CCc1ccc(O)cc1)c1c(O)cc(O)cc1O [Phloretin]	-7.84		1.76 µM	δ(ΔG0) [1]: 2.32 kcal/mol
Cl.Cl.c1cc(-c2ccc(-c3ccc(CCC4=NCCN4)cc3)o2)ccc1CCC1=NCCN1 [DB1062, 2,5-bis(4-(2-(4,5-dihydro-1H-imidazol-2-yl)ethyl)phenyl) furan dihydrochloride]	-5.76	4.4	59.6 ± 11.2 µM	
Cn1c(-c2ccc(C(=N)N)cc2)ccc1-c1ccc(C(=N)N)cc1 [DB320]	-5.66	4.52	71.3 ± 12.1 µM	
N=C(N)Nc1ccc(-c2ccc(-c3ccc(NC(=N)N)cc3)s2)cc1 [DB686]	-8.91	1.24	0.29 ± 0.11 µM	
N=C(N)c1ccc(OCCCCOc2ccc(C(=N)N)cc2)cc1 [Butamidine, 4,4’-(Butane-l ,4-diylbis(oxy))dibenzimiamide dihydrochloride dihydrate]	-7.39	2.8	3.87 ± 1.38 µM	
N=C(N)c1ccc(-c2csc(-c3ccc(C(=N)N)cc3)c2)cc1 [DB1077, 4,4'-(thiophene-2,4-diyl) dibenzimidamide dihydrochloride]	-6.62	3.54	13.8 ± 3.1 µM	
